For orientation: IC50 means the concentration at which inhibition is half-maximal.

Where only a bound is given, the exact number is not on record here.

Results on 15 compounds are retold here after patent US20180057505A1, “BICYCLIC HETEROARYL COMPOUNDS USEFUL AS INHIBITORS OF THE PAR-2 SIGNALING PATHWAY” (VERTEX PHARMACEUTICALS INCORPORATED, priority 2015, published 2018).

Common to all, as to assay type: cell-based
Assay [1] concerns the target T1, PAR2 (HT-29 cells) (Homo sapiens, UniProt P55085).
T1 construct: host or cells: HT-29
T1 sequence (P55085 26-397): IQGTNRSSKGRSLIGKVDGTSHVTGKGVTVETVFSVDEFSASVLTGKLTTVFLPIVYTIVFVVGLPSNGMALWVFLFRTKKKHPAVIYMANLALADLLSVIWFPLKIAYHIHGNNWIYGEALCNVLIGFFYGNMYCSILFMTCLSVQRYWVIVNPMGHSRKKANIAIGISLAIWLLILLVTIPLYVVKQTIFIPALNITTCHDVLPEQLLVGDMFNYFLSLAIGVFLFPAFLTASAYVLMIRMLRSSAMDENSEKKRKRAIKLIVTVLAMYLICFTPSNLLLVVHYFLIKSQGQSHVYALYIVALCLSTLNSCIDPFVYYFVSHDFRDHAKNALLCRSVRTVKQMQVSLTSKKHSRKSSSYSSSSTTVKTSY
The assay can be described thus: Ca FLIPR TETRA assay, ANTAGONIST mode, activator 3.1 U/mL trypsin. The note with it: HT-29 cells, activator 3.1 U/mL trypsin; maximal antagonist concentration per Method (A: 0.1, 1 or 2 μM; B: 50 μM). The procedure, abridged:
(§1)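 Ca2+ flux by FLIPR Tetra in HT-29 cells after 30 min r.t. compound preincubation, followed by stimulation with SLIGKV 8 μM, thrombin 1 U/mL, trypsin 3.1 U/mL or UTP 0.6 μM (final). Cells were dye-loaded with calcium 5 beforehand; compound-only responses were also read.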

In assay [2] the test system is Thrombin-stimulated Ca2+ response in HT-29 cells. The assay can be described thus: Ca FLIPR TETRA assay, ANTAGONIST mode, activator 1 U/mL Thrombin. The note with it: Homo sapiens; HT-29 cells, activator 1 U/mL Thrombin. The procedure, abridged:
as §1

Assay [3] has as its target T1, PAR2 (HT-29 cells). Put plainly: Ca FLIPR TETRA assay, ANTAGONIST mode, activator 8 μM SLIGKV. The note with it: HT-29 cells, activator 8 μM SLIGKV; maximal antagonist concentration per Method (A: 0.1, 1 or 2 μM; B: 50 μM). An outline of the steps:
as §1

Assay [4] concerns UTP-stimulated Ca2+ response in HT-29 cells. Put plainly: Ca FLIPR TETRA assay, ANTAGONIST mode, activator 0.6 μM UTP. The following applies: Homo sapiens; HT-29 cells, activator 0.6 μM UTP. The procedure, abridged:
as §1

As to `CC(C)(C)c1cc(C2CCC(F)(F)CC2)nc2cc(C(=O)N3CCN(C(=O)CCS(C)(=O)=O)CC3(C)C)oc12` [Example I-232], the IC50 is 200 nM in assay [1], above 2000 nM in assay [2], 215 nM in assay [3] and above 2000 nM in assay [4].
Turning to `CCC(CC)c1cc(-c2ccc(F)cc2)nc2cc(C(=O)N3CCNC(=O)C3(C)C)oc12` [Example I-233], the IC50 in assay [1] was 8.1 nM; in assay [2] it was above 2000 nM; in assay [3], 6.2 nM; in assay [4] it was above 2000 nM.
As for `CC(C)(C)c1cc(C2CCC(F)(F)CC2)nc2cc(C(=O)N3CCN(C(=O)[C@H]4C[C@@](C)(O)C4)CC3(C)C)oc12` [Example I-234], the IC50 in assay [1] was 38 nM; in assay [2], above 2000 nM; in assay [3] it was 22 nM; in assay [4] it was above 2000 nM.
As for `CC(C)(C)c1cc(-c2ccc(F)cc2)nc2cc(C(=O)N3CCN(c4ccn[nH]4)C(=O)C3(C)C)oc12` [Example I-235], the IC50 was 9.4 nM in assay [1], above 2000 nM in assay [2], 5.6 nM in assay [3] and above 2000 nM in assay [4].
`CN1CCN(C(=O)c2cc3nc(-c4ccc(Cl)cc4)cc(C(C)(C)C)c3o2)C(C)(C)C1=O` [Example I-236]: the IC50 in assay [1] is 5 nM; in assay [2], above 2000 nM; in assay [3], 3.5 nM; in assay [4] it was above 2000 nM.
Consider `[2H]C([2H])([2H])N1CCN(C(=O)c2cc3nc(-c4ccc(Cl)c(F)c4)cc(C(C)(C)C)c3o2)C(C)(C)C1=O` [Example I-237], for which the half-inhibitory concentration (IC50) in assay [1] was 2.4 nM; in assay [2], above 2000 nM; in assay [3], 1.8 nM; in assay [4] it was above 2000 nM.
`[2H]C([2H])([2H])N1CCN(C(=O)c2cc3nc(-c4cccc(Cl)c4)cc(C(C)(C)C)c3o2)C(C)(C)C1=O` [Example I-238]: the IC50 was 28 nM in assay [1], above 2000 nM in assay [2], 18 nM in assay [3] and above 2000 nM in assay [4].
As to `[2H]C([2H])([2H])N1CCN(C(=O)c2cc3nc(-c4ccc(F)c(Cl)c4)cc(C(C)(C)C)c3o2)C(C)(C)C1=O` [Example I-239], the IC50 in assay [1] is 5.4 nM; in assay [2] it was above 2000 nM; in assay [3] it was 6.1 nM; in assay [4], above 2000 nM.
As to `[2H]C([2H])([2H])N1CCN(C(=O)c2cc3nc(-c4ccc(Cl)cc4)cc(C(C)(C)C)c3o2)C(C)(C)C1=O` [Example I-240], the IC50 in assay [1] is 1.8 nM; in assay [2] it was above 2000 nM; in assay [3], 2.7 nM; in assay [4] it was above 2000 nM.
`CN1CCN(C(=O)c2cc3nc(-c4ccc(Cl)c(F)c4)cc(C(C)(C)C)c3o2)C(C)(C)C1=O` [Example I-241]: the IC50 was 1.6 nM in assay [1], above 2000 nM in assay [2], 1.7 nM in assay [3] and above 2000 nM in assay [4].
Regarding `CN1CCN(C(=O)c2cc3nc(-c4cccc(Cl)c4)cc(C(C)(C)C)c3o2)C(C)(C)C1=O` [Example I-242], the IC50 in assay [1] is 24 nM; in assay [2], above 2000 nM; in assay [3] it was 19 nM; in assay [4] it was above 2000 nM.
`CN1CCN(C(=O)c2cc3nc(-c4ccc(F)c(Cl)c4)cc(C(C)(C)C)c3o2)C(C)(C)C1=O` [Example I-243]: the IC50 was 7.4 nM in assay [1], above 2000 nM in assay [2], 4 nM in assay [3] and above 2000 nM in assay [4].
Take `CC(C)(C)c1cc(-c2cccc(Cl)c2)nc2cc(C(=O)N3CCNC(=O)C3(C)C)oc12` [Example I-244]: the concentration for half-maximal inhibition (IC50) in assay [1] was 27 nM; in assay [2], above 2000 nM; in assay [3], 19 nM; in assay [4] it was above 2000 nM.
Turning to `CC[C@@H](C)c1cc(-c2ccc(F)cc2)nc2cc(C(=O)N3CCNC(=O)C3(C)C)oc12` [Example I-245], the IC50 in assay [1] is 4.8 nM; in assay [2] it was above 2000 nM; in assay [3], 2.5 nM; in assay [4], above 2000 nM.
For the compound `CC[C@H](C)c1cc(-c2ccc(F)cc2)nc2cc(C(=O)N3CCNC(=O)C3(C)C)oc12` [Example I-246], the IC50 is 16 nM in assay [1], above 2000 nM in assay [2], 11 nM in assay [3] and above 2000 nM in assay [4].
